From patent US20070093520A1, “Method of treatment of diarrhea-predominant irritable bowel syndrome in a subject” (priority 2005, published 2007)

Test system: diarrhea-predominant IBS subjects
Test: 3007 Study: open-label 52-week safety study, adverse events and withdrawals
Details: for Number of subjects who died / Primary reason for withdrawal: Adverse event and lack of efficacy / Primary reason for withdrawal: Baseline complaint/adverse event / Primary reason for withdrawal: Lack of efficacy: all enrolled
[1] = Placebo/Cilansetron 2 mg, N=279
[2] = Placebo/Cilansetron 2 mg, N=279, % of appropriate gender
[3] = Placebo/Cilansetron 2 mg, gender-specific

Cc1nccn1C[C@H]1CCc2c(c3cccc4c3n2CCC4)C1=O [cilansetron, (R)-(−)-4,5,6,8,9,10-hexahydro-10-[(2-methyl-1H-imidazol-1-yl)methyl]-11H-pyrido-[3,2,1-jk]-carbazol-11-one]
TEAE leading to permanent discontinuation: Urticaria NOS [1]: 1 (<1%) n (%)
TEAE leading to permanent discontinuation: Vertigo [1]: 0 n (%)
TEAE leading to permanent discontinuation: Visual Acuity Reduced [1]: 1 (<1%) n (%)
TEAE leading to permanent discontinuation: Vomiting NOS [1]: 0 n (%)
TEAE leading to permanent discontinuation: White Blood Cells Urine Positive [1]: 0 n (%)
Total Number of Subjects with at Least One TEAE Leading to Discontinuation of Study Medication [1]: 50 (18%) n (%)
TEAE leading to permanent discontinuation: Benign Ovarian Tumour* [2]: 1 (<1%) n (%)
TEAE leading to permanent discontinuation: Breast Cancer NOS* [2]: 2 (1%) n (%)
TEAE leading to permanent discontinuation: Ovarian Cancer NOS* [2]: 0 n (%)
TEAE leading to permanent discontinuation: Ovarian Cystadenofibroma* [2]: 1 (<1%) n (%)
TEAE leading to permanent discontinuation: Pregnancy NOS* [2]: 0 n (%)
TEAE: Female Reproductive Tract Infections* [3]: 0 n (%)
TEAE: Prostate Examination Abnormal* [3]: 0 n (%)
TEAE: Smear Cervix Abnormal* [3]: 0 n (%)
TEAE: Vaginal Candidiasis* [3]: 1 (<1%) n (%)
TEAE: Vaginitis Bacterial NOS* [3]: 0 n (%)
TEAE: Vaginitis* [3]: 0 n (%)
TEAE: Vaginosis Fungal NOS* [3]: 1 (<1%) n (%)
potential complications of constipation (Studies 3006 and 3007): two
constipation episodes reported as SAEs (Study 3007): None
constipation that led to dose reduction (Study 3007): seven
deaths (Study 3007): No deaths
longest duration of a constipation episode (Study 3007): 189 days
mean longest duration of a constipation episode (Study 3007): 10.4 days
median longest duration of a constipation episode (Study 3007): four
subjects mildly bothered by the constipation (Study 3007): 8%
subjects moderately bothered by the constipation (Study 3007): 7%
subjects reporting only one constipation episode (Study 3007): 15%
subjects with a constipation episode that lasted longer than 30 days (Study 3007): Thirteen
subjects with an SAE reported as probably related to study medication (colitis ischemic) (Study 3007): One
subjects with treatment-emergent SAEs reported as unlikely related to study medication (Study 3007): five
treatment-emergent SAE: angina pectoris (Study 3007): two
treatment-emergent SAE: breast cancer NOS (Study 3007): two
treatment-emergent SAE: chest pain (Study 3007): two
treatment-emergent SAEs of cardiac disorders (Study 3007): four
treatment-emergent rectal hemorrhage (Study 3007): Eight
overall safety, tolerability and QOL finding (Study 3007, 2 mg TID over 52 weeks): generally safe, well-tolerated, and improved QOL
TEAE incidence: abdominal pain NOS (Study 3007, 18 to 40 years): 8%
TEAE incidence: constipation (Study 3007, 18 to 40 years): 19%
TEAE incidence: flatulence, bloating and distension (Study 3007, 18 to 40 years): 8%
TEAE incidence: headache NOS (Study 3007, 18 to 40 years): 7%
TEAE incidence: lower respiratory tract and lung infections (Study 3007, 18 to 40 years): 4%
TEAE incidence: nausea and vomiting symptoms (Study 3007, 18 to 40 years): 9%
TEAE incidence: sinusitis NOS (Study 3007, 18 to 40 years): 9%
TEAE incidence: abdominal pain NOS (Study 3007, 41 to 64 years): 5%
TEAE incidence: constipation (Study 3007, 41 to 64 years): 23%
TEAE incidence: flatulence, bloating and distension (Study 3007, 41 to 64 years): 5%
TEAE incidence: headache NOS (Study 3007, 41 to 64 years): 6%
TEAE incidence: lower respiratory tract and lung infections (Study 3007, 41 to 64 years): 6%
TEAE incidence: nausea and vomiting symptoms (Study 3007, 41 to 64 years): 6%
TEAE incidence: sinusitis NOS (Study 3007, 41 to 64 years): 7%
TEAE incidence: abdominal pain NOS (Study 3007, 65 years or older): 12%
TEAE incidence: constipation (Study 3007, 65 years or older): 37%
TEAE incidence: flatulence, bloating and distension (Study 3007, 65 years or older): 12%
TEAE incidence: headache NOS (Study 3007, 65 years or older): 1%
TEAE incidence: lower respiratory tract and lung infections (Study 3007, 65 years or older): 1%
TEAE incidence: nausea and vomiting symptoms (Study 3007, 65 years or older): 1%
TEAE incidence: sinusitis NOS (Study 3007, 65 years or older): 3%
SAE: Abdominal Pain Upper (Study 3007, C/C): 1 (<1%) n (%)
SAE: Adenomyosis* (Study 3007, C/C): 1 (<1%) n (%)
SAE: Angina Pectoris (Study 3007, C/C): 2 (<1%) n (%)
SAE: Appendicitis (Study 3007, C/C): 1 (<1%) n (%)
SAE: Asthma NOS (Study 3007, C/C): 0 n (%)
SAE: Benign Ovarian Tumour* (Study 3007, C/C): 0 n (%)
SAE: Bladder Prolapse (Study 3007, C/C): 0 n (%)
SAE: Bone Neoplasm Malignant (Study 3007, C/C): 1 (<1%) n (%)
SAE: Breast Cancer NOS* (Study 3007, C/C): 0 n (%)
SAE: Bronchopneumonia NOS (Study 3007, C/C): 0 n (%)
SAE: Calculus Ureteric (Study 3007, C/C): 1 (<1%) n (%)
SAE: Cardiac Disorders (Study 3007, C/C): 3 (1%) n (%)
SAE: Chest Pain (Study 3007, C/C): 1 (<1%) n (%)
SAE: Cholelithiasis (Study 3007, C/C): 1 (<1%) n (%)
SAE: Colitis Ischaemic (Study 3007, C/C): 0 n (%)
SAE: Depression (Study 3007, C/C): 0 n (%)
SAE: Endometriosis* (Study 3007, C/C): 1 (<1%) n (%)
SAE: Fibroma NOS (Study 3007, C/C): 0 n (%)
SAE: Food Allergy (Study 3007, C/C): 0 n (%)
SAE: Gastritis NOS (Study 3007, C/C): 1 (<1%) n (%)
SAE: Gastroenteritis NOS (Study 3007, C/C): 1 (<1%) n (%)
SAE: Gastrointestinal Disorders (Study 3007, C/C): 3 (1%) n (%)
SAE: General Disorders and Administration Site Conditions (Study 3007, C/C): 1 (<1%) n (%)
SAE: Hallucination NOS (Study 3007, C/C): 0 n (%)
SAE: Hallucination, Auditory (Study 3007, C/C): 0 n (%)
SAE: Heat Exhaustion (Study 3007, C/C): 1 (<1%) n (%)
SAE: Hepatitis NOS (Study 3007, C/C): 1 (<1%) n (%)
SAE: Hepatobiliary Disorders (Study 3007, C/C): 2 (<1%) n (%)
SAE: Immune System Disorders (Study 3007, C/C): 0 n (%)
SAE: Infections and Infestations (Study 3007, C/C): 1 (<1%) n (%)
SAE: Injury, Poisoning and Procedural Complications (Study 3007, C/C): 2 (<1%) n (%)
SAE: Irritable Bowel Syndrome Aggravated (Study 3007, C/C): 1 (<1%) n (%)
SAE: Leiomyoma NOS (Study 3007, C/C): 1 (<1%) n (%)
SAE: Loss of Consciousness (Study 3007, C/C): 1 (<1%) n (%)
SAE: Myocardial Infarction (Study 3007, C/C): 1 (<1%) n (%)
SAE: Neoplasms Benign, Malignant and Unspecified (Incl Cysts and Polyps) (Study 3007, C/C): 3 (1%) n (%)
SAE: Nervous System Disorders (Study 3007, C/C): 2 (<1%) n (%)
SAE: Non-Accidental Overdose (Study 3007, C/C): 1 (<1%) n (%)
SAE: Ovarian Cancer NOS* (Study 3007, C/C): 1 (<1%) n (%)
SAE: Ovarian Cystadenofibroma* (Study 3007, C/C): 0 n (%)
SAE: Pregnancy NOS* (Study 3007, C/C): 1 (<1%) n (%)
SAE: Pregnancy, Puerperium and Perinatal Conditions (Study 3007, C/C): 1 (<1%) n (%)
SAE: Psychiatric Disorders (Study 3007, C/C): 0 n (%)
SAE: Psychotic Disorder NOS (Study 3007, C/C): 0 n (%)
SAE: Renal and Urinary Disorders (Study 3007, C/C): 1 (<1%) n (%)
SAE: Reproductive System and Breast Disorders (Study 3007, C/C): 2 (<1%) n (%)
SAE: Respiratory, Thoracic and Mediastinal Disorders (Study 3007, C/C): 0 n (%)
SAE: Sinusitis Acute NOS (Study 3007, C/C): 0 n (%)
SAE: Status Epilepticus (Study 3007, C/C): 1 (<1%) n (%)
SAE: Suicidal Ideation (Study 3007, C/C): 0 n (%)
SAE: Supraventricular Tachycardia (Study 3007, C/C): 0 n (%)
SAE: Urinary Tract Infection NOS (Study 3007, C/C): 0 n (%)
SAE: Uterine Polyp NOS* (Study 3007, C/C): 1 (<1%) n (%)
SAE: Vaginal Cyst* (Study 3007, C/C): 1 (<1%) n (%)
TEAEs that led to permanent discontinuation of study medication (Study 3007, C/C): 13%
Total Number of Subjects with at Least One Serious Adverse Event (Study 3007, C/C): 19 (7%) n (%)
subjects with at least one TEAE (Study 3007, C/C): 86%
subjects with at least one treatment-emergent SAE (Study 3007, C/C): 7%
withdrawal for AE (Study 3007, C/C): 13%
withdrawal for lack of efficacy (Study 3007, C/C): 17%
Number of deaths (Study 3007, C/C (N = 257)): 0 n (%)
Number of subjects who permanently discontinued study medication due to a TEAE (as reported on the AE CRF) (Study 3007, C/C (N = 257)): 33 (13) n (%)
Number of subjects with at least one AE of special interest (Study 3007, C/C (N = 257)): 186 (72) n (%)
Number of subjects with at least one SAE (Study 3007, C/C (N = 257)): 19 (7) n (%)
Number of subjects with at least one TEAE (Study 3007, C/C (N = 257)): 220 (86) n (%)
Number of subjects with at least one TEAE leading to dose reduction (Study 3007, C/C (N = 257)): 7 (3) n (%)
Number of subjects with at least one related TEAE (Study 3007, C/C (N = 257)): 151 (59) n (%)
Number of subjects with at least one severe TEAE (Study 3007, C/C (N = 257)): 50 (19) n (%)
Number of subjects who died (Study 3007, C/C): 0 n (%)
Primary reason for withdrawal: Adverse event and lack of efficacy (Study 3007, C/C): 23 (9) n (%)
Primary reason for withdrawal: Baseline complaint/adverse event (Study 3007, C/C): 10 (4) n (%)
Primary reason for withdrawal: Lack of efficacy (Study 3007, C/C): 20 (8) n (%)
Number of deaths (Study 3007, Overall (N = 536)): 0 n (%)
Number of subjects who permanently discontinued study medication due to a TEAE (as reported on the AE CRF) (Study 3007, Overall (N = 536)): 83 (15) n (%)
Number of subjects with at least one AE of special interest (Study 3007, Overall (N = 536)): 371 (69) n (%)
Number of subjects with at least one SAE (Study 3007, Overall (N = 536)): 29 (5) n (%)
Number of subjects with at least one TEAE (Study 3007, Overall (N = 536)): 437 (82) n (%)
Number of subjects with at least one TEAE leading to dose reduction (Study 3007, Overall (N = 536)): 11 (2) n (%)
Number of subjects with at least one related TEAE (Study 3007, Overall (N = 536)): 301 (56) n (%)
Number of subjects with at least one severe TEAE (Study 3007, Overall (N = 536)): 94 (18) n (%)
Number of subjects who died (Study 3007, Overall): 0 n (%)
Primary reason for withdrawal: Adverse event and lack of efficacy (Study 3007, Overall): 57 (10) n (%)
Primary reason for withdrawal: Baseline complaint/adverse event (Study 3007, Overall): 24 (4) n (%)
Primary reason for withdrawal: Lack of efficacy (Study 3007, Overall): 45 (8) n (%)
SAE: Abdominal Pain Upper (Study 3007, P/C): 0 n (%)
SAE: Adenomyosis* (Study 3007, P/C): 0 n (%)
SAE: Angina Pectoris (Study 3007, P/C): 0 n (%)
SAE: Appendicitis (Study 3007, P/C): 0 n (%)
SAE: Asthma NOS (Study 3007, P/C): 1 (<1%) n (%)
SAE: Benign Ovarian Tumour* (Study 3007, P/C): 1 (<1%) n (%)
SAE: Bladder Prolapse (Study 3007, P/C): 1 (<1%) n (%)
SAE: Bone Neoplasm Malignant (Study 3007, P/C): 0 n (%)
SAE: Breast Cancer NOS* (Study 3007, P/C): 2 (1%) n (%)
SAE: Bronchopneumonia NOS (Study 3007, P/C): 1 (<1%) n (%)
SAE: Calculus Ureteric (Study 3007, P/C): 0 n (%)
SAE: Cardiac Disorders (Study 3007, P/C): 1 (<1%) n (%)
SAE: Chest Pain (Study 3007, P/C): 1 (<1%) n (%)
SAE: Cholelithiasis (Study 3007, P/C): 0 n (%)
SAE: Colitis Ischaemic (Study 3007, P/C): 1 (<1%) n (%)
SAE: Depression (Study 3007, P/C): 1 (<1%) n (%)
SAE: Endometriosis* (Study 3007, P/C): 0 n (%)
SAE: Fibroma NOS (Study 3007, P/C): 1 (<1%) n (%)
SAE: Food Allergy (Study 3007, P/C): 1 (<1%) n (%)
SAE: Gastritis NOS (Study 3007, P/C): 0 n (%)
SAE: Gastroenteritis NOS (Study 3007, P/C): 0 n (%)
SAE: Gastrointestinal Disorders (Study 3007, P/C): 1 (<1%) n (%)
SAE: General Disorders and Administration Site Conditions (Study 3007, P/C): 1 (<1%) n (%)
SAE: Hallucination NOS (Study 3007, P/C): 1 (<1%) n (%)
SAE: Hallucination, Auditory (Study 3007, P/C): 1 (<1%) n (%)
SAE: Heat Exhaustion (Study 3007, P/C): 0 n (%)
SAE: Hepatitis NOS (Study 3007, P/C): 0 n (%)
